Results taken from patent publication US10633407B2, “14-membered ketolides and methods of their preparation and use” (President and Fellows of Harvard College, priority 2014, dated 2020).
≈ marks a conversion by molar mass, not a printed value.

Assays:
Assay type in all cases: cell-based
[1] = test system: P. aeruginosa MP-8 PAO1:mex (mex-oprM-deletion); assay: CLSI broth dilution MIC determination; details: Pseudomonas aeruginosa, PAO1
[2] = test system: K. pneumoniae ATCC 10031; assay: CLSI broth dilution MIC determination; details: Klebsiella pneumoniae, ATCC10031, K. pneumoniae ATCC 10031 (MP-14); read-out: MIC
[3] = test system: A. baumannii MP-577 Clinical-AZT low; assay: CLSI broth dilution MIC determination; details: Acinetobacter baumannii, read-out: MIC
[4] = test system: E. faecalis Vancomycin-resistant; assay: CLSI broth dilution MIC determination; details: Enterococcus faecalis, E. faecalis Vancomycin-resistant (UNT-039); read-out: MIC
[5] = test system: A. baumannii ATCC 19606; assay: CLSI broth dilution MIC determination; details: Acinetobacter baumannii, ATCC19606; A. baumannii ATCC 19606 (MP-15); read-out: MIC
[6] = test system: P. aeruginosa ATCC 27853; assay: CLSI broth dilution MIC determination; details: Pseudomonas aeruginosa, ATCC27853; P. aeruginosa ATCC 27853 (MP-3); read-out: MIC
[7] = test system: A. baumannii MP-576 Clinical-MDR; assay: CLSI broth dilution MIC determination; details: Acinetobacter baumannii, read-out: MIC
[8] = test system: S. pyogenes Macrolide-resistant; assay: CLSI broth dilution MIC determination; details: Streptococcus pyogenes, S. pyogenes Macrolide-resistant (MP-625 UNT-014); read-out: MIC
[9] = test system: P. aeruginosa MP-7 PAO1; assay: CLSI broth dilution MIC determination; details: Pseudomonas aeruginosa, read-out: MIC
[10] = test system: E. coli ATCC 25922; assay: CLSI broth dilution MIC determination; details: Escherichia coli, ATCC25922, E. coli ATCC 25922 (MP-4); read-out: MIC
Outline: (§1)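 MICs measured following CLSI broth dilution methodology. The strains tested include macrolide-resistant and multidrug-resistant isolates whose resistance genotypes can be constitutive or inducible.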

[11] = test system: S. pneumoniae mef A genotype (second strain so labelled); assay: CLSI broth dilution MIC determination; details: Streptococcus pneumoniae, second strain (MP-627 UNT-039), read-out: MIC
Outline: as §1

[12] = test system: S. pneumoniae mef A genotype (first strain so labelled); assay: CLSI broth dilution MIC determination; details: Streptococcus pneumoniae, first strain (MP-626 UNT-038)
Outline: as §1

[13] = test system: S. aureus USA600, GISA; assay: CLSI broth dilution MIC determination; details: Staphylococcus aureus; S. aureus USA600, GISA (MP-619 UNT-120); read-out: MIC
Outline: as §1

[14] = test system: S. aureus ATCC 29213; assay: CLSI broth dilution MIC determination; details: Staphylococcus aureus, ATCC29213; S. aureus ATCC 29213 (MP-12); read-out: MIC
Outline: as §1

[15] = test system: S. aureus MRSA: USA300; assay: CLSI broth dilution MIC determination; details: Staphylococcus aureus; S. aureus MRSA: USA300 (MP-549, msr(a)); read-out: MIC
Outline: as §1

[16] = test system: S. aureus MP-17 ATCCBAA-977 (BAA 977 iErm); assay: CLSI broth dilution MIC determination; details: Staphylococcus aureus; S. aureus MP-17, ATCCBAA-977, iErm; read-out: MIC
Outline: as §1

[17] = test system: E. coli MP-532 clinical-cErmB; assay: CLSI broth dilution MIC determination; details: Escherichia coli
Outline: as §1

[18] = test system: S. pneumoniae ATCC 49619; assay: CLSI broth dilution MIC determination; details: Streptococcus pneumoniae, ATCC49619, S. pneumoniae ATCC 49619 (MP-21); read-out: MIC
Outline: as §1

[19] = test system: E. coli MP-9 ATCC25922:tolC; assay: CLSI broth dilution MIC determination; details: Escherichia coli, ATCC25922
Outline: as §1

[20] = test system: S. aureus erm A genotype; assay: CLSI broth dilution MIC determination; details: Staphylococcus aureus; S. aureus erm A genotype (MP-620 UNT-146); read-out: MIC
Outline: as §1

[21] = test system: E. coli MP-541 clinical; assay: CLSI broth dilution MIC determination; details: Escherichia coli, MP541CLINICAL, read-out: MIC
Outline: as §1

[22] = test system: S. aureus (MRSA) MP-513 ST-228 cErm (Clinical-cErm); assay: CLSI broth dilution MIC determination; details: Staphylococcus aureus, read-out: MIC
Outline: as §1

[23] = test system: S. aureus MRSA: USA100; assay: CLSI broth dilution MIC determination; details: Staphylococcus aureus; S. aureus MRSA: USA100 (MP-618 UNT-096); read-out: MIC
Outline: as §1

[24] = test system: K. pneumoniae MP-546 Clinical-MDR; assay: CLSI broth dilution MIC determination; details: Klebsiella pneumoniae, read-out: MIC
[25] = test system: strains of B. subtilis, E. coli, S. aureus, S. pneumoniae, and H. influenzae, including several multidrug-resistant strains; assay: CLSI broth dilution MIC determination, whole panel of strains; details: from MIC data, Tables B1-B13
Excerpt: MIC data was collected for the novel macrolides that this platform has produced against over 21 unique strains of B. subtilis, E. coli, S. aureus, S. pneumoniae, and H. influenzae, including several multidrug-resistant strains, with a special focus on macrolide resistant mechanisms (vide supra). Azithromycin (Azithro) and Solithromycin (Solithro) were included as a control macrolides in many cases. CLSI standard procedures for broth dilution MIC determination were used. […] These genotypes can be constitutive or inducible.

[26] = test system: S. pyogenes ATCC 19615; assay: CLSI broth dilution MIC determination; details: Streptococcus pyogenes, ATCC19615, S. pyogenes ATCC 19615 (MP-19); read-out: MIC
[27] = test system: E. faecalis ATCC 29212; assay: CLSI broth dilution MIC determination; details: Enterococcus faecalis, ATCC29212, E. faecalis ATCC 29212 (MP-24); read-out: MIC
[28] = test system: K. pneumoniae MP-548 clinical; assay: CLSI broth dilution MIC determination; details: Klebsiella pneumoniae, MP548CLINICAL, read-out: MIC

**Q.** `CC[C@H]1OC(=O)[C@@](C)(F)C(=O)[C@H](C)[C@@H](O[C@@H]2OC(C)CC(N(C)C)C2O)[C@](C)(OC)C[C@@H](C)C(=O)[C@H](C)[C@H]2N(CC#CCn3cc(-c4cccc(N)n4)nn3)C(=O)O[C@]12C` (stereo partly shown) [FSM-100573] was tested. Which MIC [1] did it give?
**A.** Its MIC is 4 µg/mL (≈ 4.75 µM).

**Q.** And the MIC [2]?
**A.** Its MIC is 2 µg/mL (≈ 2.38 µM).

**Q.** And the MIC [3]?
**A.** Its MIC is 16 µg/mL (≈ 19 µM).

**Q.** And the MIC [4]?
**A.** Its MIC is 1 µg/mL (≈ 1.19 µM).

**Q.** What about the MIC [5] of the same molecule?
**A.** The MIC was 2 µg/mL (≈ 2.38 µM).

**Q.** What about the MIC [6] of the same molecule?
**A.** Its MIC is 16 µg/mL (≈ 19 µM).

**Q.** And the MIC [7]?
**A.** The MIC was 64 µg/mL (≈ 76 µM).

**Q.** And the MIC [8]?
**A.** Its MIC is < 0.03 µg/mL.

**Q.** What about the MIC [9] of the same molecule?
**A.** Its MIC is 32 µg/mL (≈ 38 µM).

**Q.** And the MIC [10]?
**A.** Its MIC is 8 µg/mL (≈ 9.5 µM).

**Q.** And the MIC [11]?
**A.** The MIC was < 0.03 µg/mL.

**Q.** What about the MIC [12] of the same molecule?
**A.** Its MIC is < 0.03 µg/mL.

**Q.** What about the MIC [13] of the same molecule?
**A.** Its MIC is 16 µg/mL (≈ 19 µM).

**Q.** What about the MIC [14] of the same molecule?
**A.** Its MIC is 0.06 µg/mL (≈ 0.0713 µM).

**Q.** What about the MIC [15] of the same molecule?
**A.** Its MIC is 0.06 µg/mL (≈ 0.0713 µM).

**Q.** And the MIC [16]?
**A.** The MIC was 0.06 µg/mL (≈ 0.0713 µM).

**Q.** What about the MIC [17] of the same molecule?
**A.** Its MIC is 64 µg/mL (≈ 76 µM).

**Q.** And the MIC [18]?
**A.** The MIC was < 0.03 µg/mL.

**Q.** What about the MIC [19] of the same molecule?
**A.** The MIC was 2 µg/mL (≈ 2.38 µM).

**Q.** What about the MIC [20] of the same molecule?
**A.** The MIC was 16 µg/mL (≈ 19 µM).

**Q.** What about the MIC [21] of the same molecule?
**A.** The MIC was 16 µg/mL (≈ 19 µM).

**Q.** What about the MIC [22] of the same molecule?
**A.** Its MIC is 16 µg/mL (≈ 19 µM).

**Q.** And the MIC [23]?
**A.** Its MIC is 16 µg/mL (≈ 19 µM).

**Q.** And the MIC [24]?
**A.** Its MIC is 64 µg/mL (≈ 76 µM).

**Q.** And the “potency compared with solithromycin” value [25]?
**A.** The value was “even more potent”.

**Q.** What about the MIC [26] of the same molecule?
**A.** The MIC was < 0.03 µg/mL.

**Q.** What about the MIC [27] of the same molecule?
**A.** Its MIC is < 0.03 µg/mL.

**Q.** What about the MIC [28] of the same molecule?
**A.** The MIC was 32 µg/mL (≈ 38 µM).
